For test [1] the following is noted: long term use of the drug; cited from earlier work.
Test [2] in a line: Weight gain of rats receiving fluocinolone by daily subcutaneous injection. As to conditions: FIG. 39; systemic subcutaneous injection, 25 ug/kg daily for 22 days. In kind it is in vivo, Wistar rats. On the procedure: Forty Wistar rats were utilized in this study. The forty rats were divided into 4 groups. Group 1 rats (10 in total) each received fluocinolone acetonide via systemic subcutaneous injection at a dosage of 0.5 ug/kg daily. Group 2 rats (10 in total) each received fluocinolone acetonide via systemic subcutaneous injection at a dosage of 5 ug/kg daily. Group 3 rats (10 in total) each received fluocinolone acetonide via systemic subcutaneous injection at a dosage of 25 ug/kg daily. Group 4 rats (10 in total) were the control in this study and received saline injections.

With `CCCCCCCCCCC[C@@H](C[C@@H]1OC(=O)[C@H]1CCCCCC)OC(=O)[C@H](CC(C)C)NC=O` [Orlistat], in test [1], the average weight loss was 6.4 lbs. Regarding `Cc1c(C(=O)NN2CCCCC2)nn(-c2ccc(Cl)cc2Cl)c1-c1ccc(Cl)cc1` [Rimonabant], in test [1], the average weight loss is listed as 10.4 lbs. On to `CC(C)CC(N(C)C)C1(c2ccc(Cl)cc2)CCC1` (stereo not shown) [Sibutramine], for which the average weight loss in test [1] was 9.3 lbs. As to `CC1(C)O[C@@H]2C[C@H]3[C@@H]4C[C@H](F)C5=CC(=O)C=C[C@]5(C)[C@@]4(F)[C@@H](O)C[C@]3(C)[C@]2(C(=O)CO)O1` [fluocinolone acetonide, 6α-,9α-Difluoro-16 α-hydroxyprednisolone 16,17-acetonide], the “body weight increase compared to control rats (saline)” value in test [2] is “did not exhibit as much body weight increase as control rats”.
